This is an account of results in patent publication US10420772B2, “Animal and human anti-trypanosomonal and anti-leishmania agents” (Celgene Corporation, priority 2016, dated 2019).

Assay [1] deals with STIB 719/ILRAD 560 T. vivax (drug sensitive) strain. Briefly: Ex vivo Alamar Blue 48 hrs drug sensitivity assay for T. vivax. The assay is classed as cell-based. The note with it: Trypanosoma vivax, STIB719; STIB 719/ILRAD 560 T. vivax bloodstream form, ex vivo, Alamar Blue, 48 hrs; read-out: T. vivax Act. As for the experimental part:
Ex vivo Alamar Blue48 hrs drug sensitivity assay for T. vivax. Compounds were tested ex vivo for chemotherapeutic efficacy against the STIB 719/ILRAD 560 T. vivax (drug sensitive) strain, using an Alamar Blue assay. Test compounds were prepared as 10 mg/mL DMSO stocks for each assay run. Compounds were assayed in at least three separate, independent test runs and an 11-point dilution curve was used to determine the IC50 values. Bloodstream form trypanosomes were propagated and harvested from a highly parasitaemic mouse (via cardiac puncture) and were incubated with test compounds for 45 hrs at 37° C. in a humidified atmosphere containing 5% CO2, supported in HMI media containing 20% bovine serum. Thereafter, 10 μL of Resazurin dye (12.5 mg in 100 mL of phosphate buffered saline, Sigma-Aldrich, Buchs, Switzerland) were added for an additional 3 hrs. Plates were then read using a fluorescent plate reader (Spectramax, Gemini XS, Bucher Biotec, Basel, Switzerland) using an excitation wavelength of 536 nm and an emission wavelength of 588 nm. Data points were averaged to generate sigmoidal dose-response curves and IC50 values were determined using Softmax Pro 5.2 software.
A general note: Alamar Blue is a resazurin reagent that responds to reducing activity.

For assay [2], the system named is IL3000 T. congolense (drug sensitive) strain. Briefly: In vitro Alamar Blue 72 hrs drug sensitivity assay for T. congolense. It counts as cell-based. The note with it: Trypanosoma congolense, IL3000 T. congolense bloodstream form, read-out: T. congo Act. The procedure:
In Vitro Alamar Blue 72 Hrs Drug Sensitivity Assay for T. Congolense. Compounds were tested in vitro for chemotherapeutic efficacy against the IL3000 T. congolense (drug sensitive) strain using an Alamar Blue assay. Test compounds were prepared as 10 mg/mL DMSO stocks for each assay run. Compounds were assayed in at least three separate, independent test runs and an 11-point dilution curve was used to determine the IC50 values. Bloodstream form trypanosomes were supported in HMI media containing 20% bovine serum and were incubated with test compounds for 69 hrs at 34° C. in a humidified atmosphere containing 5% CO2. Thereafter, 10 μL of Resazurin dye (12.5 mg in 100 mL of phosphate buffered saline, Sigma-Aldrich, Buchs, Switzerland) were added for an additional 3 hrs. Plates were then read using a fluorescent plate reader (Spectramax, Gemini XS, Bucher Biotec, Basel, Switzerland) using an excitation wavelength of 536 nm and an emission wavelength of 588 nm. Data points were averaged to generate sigmoidal dose-response curves and IC50 values were determined using Softmax Pro 5.2 software.

As for `CC1(Nc2ncc3nc(Nc4cccc(Cl)c4)n([C@@H]4CCC[C@H](CN)C4)c3n2)CCOCC1` [A-20, 9-((1R,3S)-3-(aminomethyl)cyclohexyl)-N8-(3-chlorophenyl)-N2-(4-methyltetrahydro-2H-pyran-4-yl)-9H-purine-2,8-diamine], the values for the IC50 in assay [1] and in assay [2] were under 150 nM and 350 to 500 nM, respectively.

`CNc1ncc2nc(Nc3cccc(Cl)c3)n(C3CCC(CN)CC3)c2n1` (centres unmarked) [B-9, 9-((1s,4s)-4-(aminomethyl)cyclohexyl)-N8-(3-chlorophenyl)-N2-methyl-9H-purine-2,8-diamine]: the IC50 in assay [1] was under 150 nM; in assay [2] it was 350 to 500 nM.

With `CC(C)(C)Nc1ncc2nc(Nc3ccc(C(F)(F)F)cc3)n([C@H]3CC[C@@H](CN)CC3)c2n1` [A-22, 9-((1s,4s)-4-(aminomethyl)cyclohexyl)-N2-tert-butyl-N8-(4-(trifluoromethyl)phenyl)-9H-purine-2,8-diamine], the IC50 in assay [1] lay in the range of 350 to 500 nM; in assay [2], 150 to 350 nM.

Take `NC1CCC(n2c(Nc3cccc(Cl)c3)nc3cnc(NCC(F)(F)F)nc32)CC1` (centres unmarked) [B-4, 9-((1r,4r)-4-aminocyclohexyl)-N8-(3-chlorophenyl)-N2-(2,2,2-trifluoroethyl)-9H-purine-2,8-diamine]: the IC50 in assay [1] was under 150 nM; in assay [2], 350 to 500 nM.

In the case of `CC1(Nc2ncc3nc(Nc4cc(Cl)cc(C(F)(F)F)c4)n(C4CCC(CN)CC4)c3n2)CCC1` (centres unmarked) [A-55, 9-((1s,4s)-4-(aminomethyl)cyclohexyl)-N8-(3-chloro-5-(trifluoromethyl)phenyl)-N2-(1-methylcyclobutyl)-9H-purine-2,8-diamine], the results for the IC50 in assay [1] and in assay [2] were 350 to 500 nM and 150 to 350 nM, respectively.

For `CC1(Nc2ncc3nc(Nc4cccc(F)c4F)n(C4CCC(CN)CC4)c3n2)CCOCC1` (centres unmarked) [A-9, 9-((1s,4s)-4-(aminomethyl)cyclohexyl)-N8-(2,3-difluorophenyl)-N2-(4-methyltetrahydro-2H-pyran-4-yl)-9H-purine-2,8-diamine], the IC50 in assay [1] and in assay [2] was under 150 nM throughout.

Regarding `CC1(Nc2ncc3nc(Nc4cccc(C(F)(F)F)c4)n(C4CCC(C#N)CC4)c3n2)CCOCC1` (centres unmarked) [A-24, (1s,4s)-4-(2-(4-methyltetrahydro-2H-pyran-4-ylamino)-8-(3-(trifluoromethyl)phenylamino)-9H-purin-9-yl)cyclohexanecarbonitrile], the IC50 in assay [1] and in assay [2] was 150 to 350 nM each time.

Regarding `CN(C)c1ncc2nc(Nc3cc(C(F)(F)F)ccc3F)n(C3CCC(CN)CC3)c2n1` (centres unmarked) [B-14, 9-((1s,4s)-4-(aminomethyl)cyclohexyl)-N8-(2-fluoro-5-(trifluoromethyl)phenyl)-N2,N2-dimethyl-9H-purine-2,8-diamine], the IC50 was under 150 nM in assay [1] and 350 to 500 nM in assay [2].

For the compound `CC1(Nc2ncc3nc(Nc4cccc(Cl)c4)n(C4CCC(O)CC4)c3n2)CCCC1` (centres unmarked) [A-10, (1s,4s)-4-(8-(3-chlorophenylamino)-2-(1-methylcyclopentylamino)-9H-purin-9-yl)cyclohexanol], the IC50 in assay [1] and in assay [2] was 350 to 500 nM throughout.

For `NC1CCC(n2c(Nc3cccc(Cl)c3)nc3cnc(NC4CC4)nc32)CC1` (centres unmarked) [B-2, 9-((1r,4r)-4-aminocyclohexyl)-N8-(3-chlorophenyl)-N2-cyclopropyl-9H-purine-2,8-diamine], the IC50 was under 150 nM in assay [1] and 350 to 500 nM in assay [2].

As to `CC(C)(C)Nc1ncc2nc(Nc3cccc(C#N)c3)n(C3CCC(N)CC3)c2n1` (centres unmarked) [A-52, 3-(9-((1r,4r)-4-aminocyclohexyl)-2-(tert-butylamino)-9H-purin-8-ylamino)benzonitrile], the IC50 in assay [1] is under 150 nM; in assay [2], 350 to 500 nM.

With `COC(=O)NC[C@H]1CC[C@@H](n2c(Nc3cccc(Cl)c3)nc3cnc(NC4(C)CCOCC4)nc32)CC1` [A-14, methyl ((1s,4s)-4-(8-(3-chlorophenylamino)-2-(4-methyltetrahydro-2H-pyran-4-ylamino)-9H-purin-9-yl)cyclohexyl)methylcarbamate], the IC50 in assay [1] lay in the range of 350 to 500 nM; in assay [2] it was 150 to 350 nM.

Turning to `CC1(O)CCC(Nc2ncc3nc(Nc4cccc(Cl)c4)n(C4CCC(CN)CC4)c3n2)CC1` (centres unmarked) [B-11, 4-(9-((1s,4s)-4-(aminomethyl)cyclohexyl)-8-(3-chlorophenylamino)-9H-purin-2-ylamino)-1-methylcyclohexanol], the IC50 in assay [1] is under 150 nM; in assay [2], 350 to 500 nM.

On to `CC1(C)CC(Nc2ncc3nc(Nc4cccc(Cl)c4)n([C@H]4CC[C@@H](CN)CC4)c3n2)CCO1` (some centres unmarked) [B-8, 9-((1s,4s)-4-(aminomethyl)cyclohexyl)-N8-(3-chlorophenyl)-N2-(2,2-dimethyltetrahydro-2H-pyran-4-yl)-9H-purine-2,8-diamine], for which the IC50 in assay [1] is under 150 nM; in assay [2], 150 to 350 nM.

Consider `CC1(Nc2ncc3nc(Nc4cccc(C(F)(F)F)c4)n(C4CCC(CN)CC4)c3n2)CCCC1` (centres unmarked) [A-12, 9-((1s,4s)-4-(aminomethyl)cyclohexyl)-N2-(1-methylcyclopentyl)-N8-(3-(trifluoromethyl)phenyl)-9H-purine-2,8-diamine], for which the values for the IC50 in assay [1] and in assay [2] were 150 to 350 nM and 350 to 500 nM, respectively.

In the case of `CC(C)(CO)Nc1ncc2nc(Nc3cccc(Cl)c3)n(C3CCC(CN)CC3)c2n1` (centres unmarked) [A-54, 2-(9-((1s,4s)-4-(aminomethyl)cyclohexyl)-8-(3-chlorophenylamino)-9H-purin-2-ylamino)-2-methylpropan-1-ol], the values for the IC50 in assay [1] and in assay [2] were under 150 nM and 150 to 350 nM, respectively.

For `NCC1CCC(n2c(Nc3cc(C(F)(F)F)ccc3F)nc3cnc(N4CCCC4)nc32)CC1` (centres unmarked) [B-15, 9-((1s,4s)-4-(aminomethyl)cyclohexyl)-N-(2-fluoro-5-(trifluoromethyl)phenyl)-2-(pyrrolidin-1-yl)-9H-purin-8-amine], the results for the IC50 in assay [1] and in assay [2] were under 150 nM and 150 to 350 nM, respectively.

As to `CC1(Nc2ncc3nc(Nc4cccc(Cl)c4)n(-c4ccc(CN)cc4)c3n2)CCOCC1` [A-32, 9-(4-(aminomethyl)phenyl)-N8-(3-chlorophenyl)-N2-(4-methyltetrahydro-2H-pyran-4-yl)-9H-purine-2,8-diamine], the IC50 is under 150 nM in assay [1] and 150 to 350 nM in assay [2].

Turning to `CN(c1ncc2nc(Nc3cccc(Cl)c3)n([C@H]3CC[C@@H](CN)CC3)c2n1)C1CCOCC1` [B-5, 9-((1s,4s)-4-(aminomethyl)cyclohexyl)-N8-(3-chlorophenyl)-N2-methyl-N2-(tetrahydro-2H-pyran-4-yl)-9H-purine-2,8-diamine], the IC50 was under 150 nM in assay [1] and 350 to 500 nM in assay [2].

Consider `CC(C)(C)Nc1ncc2nc(Nc3cc(Cl)cc(C(F)(F)F)c3)n(C3CCC(N)CC3)c2n1` (centres unmarked) [A-53, 9-((1r,4r)-4-aminocyclohexyl)-N2-tert-butyl-N8-(3-chloro-5-(trifluoromethyl)phenyl)-9H-purine-2,8-diamine], for which the IC50 in assay [1] and in assay [2] was 150 to 350 nM in each case.

For the compound `CC1(Nc2ncc3nc(Nc4cccc(Cl)c4)n([C@H]4CC[C@H](CO)CC4)c3n2)CCOCC1` [A-26, ((1r,4r)-4-(8-(3-chlorophenylamino)-2-(4-methyltetrahydro-2H-pyran-4-ylamino)-9H-purin-9-yl)cyclohexyl)methanol], the IC50 was under 150 nM in assay [1] and 150 to 350 nM in assay [2].

`CC1(Nc2ncc3nc(Nc4cc(C(F)(F)F)ccc4F)n(C4CCC(CN)CC4)c3n2)CCC1` (centres unmarked) [A-61, 9-((1s,4s)-4-(aminomethyl)cyclohexyl)-N8-(2-fluoro-5-(trifluoromethyl)phenyl)-N2-(1-methylcyclobutyl)-9H-purine-2,8-diamine]: the IC50 was under 150 nM in assay [1] and 150 to 350 nM in assay [2].

With `CC(C)(C)Nc1ncc2nc(Nc3ccc(Cl)c(Cl)c3)n(C3CC(N)C3)c2n1` (centres unmarked) [A-39, 9-(3-aminocyclobutyl)-N2-tert-butyl-N8-(3,4-dichlorophenyl)-9H-purine-2,8-diamine], the IC50 in assay [1] fell in the range of 150 to 350 nM; in assay [2], 350 to 500 nM.

In the case of `CNC[C@H]1CC[C@@H](n2c(Nc3cccc(Cl)c3)nc3cnc(NC4(C)CCOCC4)nc32)CC1` [A-21, N8-(3-chlorophenyl)-9-((1s,4s)-4-((methylamino)methyl)cyclohexyl)-N2-(4-methyltetrahydro-2H-pyran-4-yl)-9H-purine-2,8-diamine], the IC50 in assay [1] and in assay [2] was under 150 nM in each case.

As for `CC1(Nc2ncc3nc(Nc4cccc(Cl)c4)n([C@H]4CC[C@@H](CN)CC4)c3n2)CC1` [A-51, 9-((1s,4s)-4-(aminomethyl)cyclohexyl)-N8-(3-chlorophenyl)-N2-(1-methylcyclopropyl)-9H-purine-2,8-diamine], the IC50 in assay [1] and in assay [2] was under 150 nM in each case.
